From BigSolDB 2.1

C=CC(=O)N1CCC[C@@H](n2nc(-c3ccc(Oc4ccccc4)cc3)c3c(N)ncnc32)C1
solubility (mole fraction)
Settings	298.15 K	303.15 K	308.15 K	313.15 K	323.15 K
in ethanol	0.00312	0.00356	0.00396	0.00447	0.00551
in water	1.42e-07	2.22e-07	3.12e-07	4.29e-07	7.77e-07
